Reference: patent US12421211B2, “Heterocyclic compounds” (Hoffmann-La Roche Inc., priority 2021, dated 2025)
Counter-ions that a name gives are not always drawn.

System: Acinetobacter baumannii ATCC17961
Test: Antimicrobial susceptibility testing: 90% growth inhibitory concentration (IC90) determination
Assay type: cell-based
Conditions: Acinetobacter baumannii, ATCC17961, 16 h, 90% growth inhibitory concentration, Acinetobacter baumannii ATCC17961, Iso-Sensitest broth, OD 600 nm over 16 h; read-out: ATCC 17961 IC90
Method in brief: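 A. baumannii ATCC17961 at ~5×10^5 CFU/ml in Iso-Sensitest broth exposed to 10-point twofold dilutions (e.g. 50–0.097 μM final), 35±2° C. OD600 read every 20 minutes over 16h; IC50 and IC90 derived from inhibition during logarithmic growth.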

Row | Structure (SMILES) | IC90 [nM]
1 | COCCn1ncc(-c2ccc(-c3cnc(C(=O)Nc4ccc(C(=O)N5CCN(C(=O)CCC[N+](C)(CCCN)CCCN)CC5)c(Cl)c4)n3C)c(F)c2F)c1C [Example P3, bis(3-aminopropyl)-[4-[4-[2-chloro-4-[[5-[2,3-difluoro-4-[1-(2-methoxyethyl)-5-methyl-pyrazol-4-yl]phenyl]-1-methyl-imidazole-2-carbonyl]amino]benzoyl]piperazin-1-yl]-4-oxo-butyl]-methyl-ammonium; formate] | 293
2 | COCCn1ncc(-c2ccc(-c3cnc(C(=O)Nc4ccc(C(=O)NCC5CCN(C(=O)CN(C)C)CC5)c(Cl)c4)n3C)c(F)c2F)c1C [Example D33, N-[3-chloro-4-[[1-[2-(dimethylamino)acetyl]-4-piperidyl]methylcarbamoyl]phenyl]-5-[2,3-difluoro-4-[1-(2-methoxyethyl)-5-methyl-pyrazol-4-yl]phenyl]-1-methyl-imidazole-2-carboxamide; 2,2,2-trifluoroacetic acid] | 210
3 | CNC(=O)Cn1cc(-c2ccc(-c3cnc(C(=O)Nc4ccc(C(=O)N5CCN(C(=O)[C@@H]6C[C@@H](O)C[N+]6(C)C)CC5)c(Cl)c4)n3C)c(F)c2F)c(C)n1 [Example F5, N-[3-chloro-4-[4-[(2S,4R)-4-hydroxy-1,1-dimethyl-pyrrolidin-1-ium-2-carbonyl]piperazine-1-carbonyl]phenyl]-5-[2,3-difluoro-4-[3-methyl-1-[2-(methylamino)-2-oxo-ethyl]pyrazol-4-yl]phenyl]-1-methyl-imidazole-2-carboxamide; formate] | 280
4 | COCCn1cc(-c2ccc(-c3cnc(C(=O)Nc4ccc(C(=O)N5CCN(C(=O)C6CC[N+](C)(CC(N)=O)CC6)CC5)c(Cl)c4)n3C)c(F)c2F)c(C)n1 (stereo not shown) [Example B2, N-[4-[4-[1-(2-amino-2-oxo-ethyl)-1-methyl-piperidin-1-ium-4-carbonyl]piperazine-1-carbonyl]-3-chloro-phenyl]-5-[2,3-difluoro-4-[1-(2-methoxyethyl)-3-methyl-pyrazol-4-yl]phenyl]-1-methyl-imidazole-2-carboxamide; formate] | 120

Same assay, conditions: Acinetobacter baumannii, ATCC17961, 16 h, read-out: ATCC 17961 IC90

Row | Structure (SMILES) | IC90 [nM]
5 | Cc1nn(CC(=O)Nc2ccc(N3CCOCC3)nn2)cc1-c1ccc(-c2cnc(C(=O)Nc3ccc(C(=O)N4CCN(C(=O)C5CC[N+](C)(C)CC5)CC4)c(Cl)c3)n2C)c(F)c1F [Example L5, N-[3-chloro-4-[4-(1,1-dimethylpiperidin-1-ium-4-carbonyl)piperazine-1-carbonyl]phenyl]-5-[2,3-difluoro-4-[3-methyl-1-[2-[(6-morpholinopyridazin-3-yl)amino]-2-oxo-ethyl]pyrazol-4-yl]phenyl]-1-methyl-imidazole-2-carboxamide; formate] | 374
6 | COCCn1cc(-c2ccc(-c3cnc(C(=O)Nc4ccc(C(=O)N5CCN(C(=O)[C@H]6CC[N@+](CC(=O)O)(CC7CNC7)CC6)CC5)c(C)c4)n3C)cc2F)c(C)n1 [Example O9, cis 2-[1-(azetidin-3-ylmethyl)-4-[4-[4-[[5-[3-fluoro-4-[1-(2-methoxyethyl)-3-methyl-pyrazol-4-yl]phenyl]-1-methyl-imidazole-2-carbonyl]amino]-2-methyl-benzoyl]piperazine-1-carbonyl]piperidin-1-ium-1-yl]acetic acid formate] | 284
7 | COCCn1cc(-c2ccc(-c3cnc(C(=O)Nc4ccc(C(=O)N5CCN(C(=O)C[N+]6(C)C[C@@H](O)[C@H](O)C6)CC5)c(Cl)c4)n3C)c(F)c2F)c(C)n1 [Example C10, N-[3-chloro-4-[4-[2-[(3R,4R)-3,4-dihydroxy-1-methyl-pyrrolidin-1-ium-1-yl]acetyl]piperazine-1-carbonyl]phenyl]-5-[2,3-difluoro-4-[1-(2-methoxyethyl)-3-methyl-pyrazol-4-yl]phenyl]-1-methyl-imidazole-2-carboxamide; formate] | 280
